Test results taken from patent US8309734B2 (Hoffmann-La Roche Inc., priority 2008, dated 2012).

Target: T1, human GPBAR1 receptor (Homo sapiens, UniProt Q8TDU6)
T1 construct: expressed in transfected cells
T1 sequence (Q8TDU6 1-330): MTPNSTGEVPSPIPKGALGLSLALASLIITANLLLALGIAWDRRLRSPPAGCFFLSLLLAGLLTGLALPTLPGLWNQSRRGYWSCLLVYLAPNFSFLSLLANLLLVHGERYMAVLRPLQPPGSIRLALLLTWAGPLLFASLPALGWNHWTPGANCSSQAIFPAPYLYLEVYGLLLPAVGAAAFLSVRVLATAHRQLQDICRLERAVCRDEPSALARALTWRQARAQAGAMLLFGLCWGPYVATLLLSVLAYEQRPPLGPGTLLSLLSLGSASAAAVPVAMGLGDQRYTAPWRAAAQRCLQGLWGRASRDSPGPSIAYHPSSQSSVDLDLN
Experiment: functional cAMP assay in CHO-dhfr(minus) cells expressing human GPBAR1 receptors
Assay type: cell-based
Settings: cAMP increase (TR-FRET) in CHO-dhfr(minus) cells expressing human GPBAR1; compounds incubated 30 min at 30° C.

| SMILES | EC50 [nM] |
| --- | --- |
| O=C(c1cccnc1Oc1cc(Cl)ccc1Cl)N1CCN(CC2CCC2)c2ccccc21 [Example 139, (4-Cyclobutylmethyl-3,4-dihydro-2H-quinoxalin-1-yl)-[2-(2,5-dichloro-phenoxy)-pyridin-3-yl]-methasone] | 926 |
| CCOC(=O)CN1CCN(C(=O)c2cccnc2Oc2cc(Cl)ccc2Cl)c2ccccc21 [Example 141, {4-[2-(2,5-Dichloro-phenoxy)-pyridine-3-carbonyl]-3,4-dihydro-2H-quinoxalin-1-yl}-acetic acid ethyl ester] | 324 |
| O=C(O)CN1CCN(C(=O)c2cccnc2Oc2cc(Cl)ccc2Cl)c2ccccc21 [Example 142, {4-[2-(2,5-Dichloro-phenoxy)-pyridine-3-carbonyl]-3,4-dihydro-2H-quinoxalin-1-yl}-acetic acid] | 307 |
| O=C(O)CCc1ccc(S(=O)(=O)N2CCN(C(=O)c3cccnc3Oc3cc(Cl)ccc3Cl)c3ccccc32)cc1 [Example 143, 3-(4-{4-[2-(2,5-Dichloro-phenoxy)-pyridine-3-carbonyl]-3,4-dihydro-2H-quinoxaline-1-sulfonyl}-phenyl)-propionic acid] | 745 |
| COc1ccc(Cl)c(N(C)C(=O)c2cc(F)cnc2Oc2cc(Cl)ccc2Cl)c1Cl [Example 146, N-(2,6-Dichloro-3-methoxy-phenyl)-2-(2,5-dichloro-phenoxy)-5-fluoro-N-methyl-nicotinamide] | 1970 |
| COC(=O)C1CCN(C(=O)c2cc(F)cnc2Oc2cc(Cl)ccc2Cl)c2ccccc21 (stereo not drawn) [Example 148, 1-[2-(2,5-Dichloro-phenoxy)-5-fluoro-pyridine-3-carbonyl]-1,2,3,4-tetrahydro-quinoline-4-carboxylic acid methyl ester] | 1960 |
| O=C(c1cc(F)cnc1Oc1cc(Cl)ccc1Cl)N1CCN(Cc2ccoc2)c2ccccc21 [Example 151, [2-(2,5-Dichloro-phenoxy)-5-fluoro-pyridin-3-yl]-(4-furan-3-ylmethyl-3,4-dihydro-2H-quinoxalin-1-yl)-methanone] | 1070 |
| O=C(c1cc(F)cnc1Oc1cc(Cl)ccc1Cl)N1CCN(CC2CCC2)c2ccccc21 [Example 152, (4-Cyclobutylmethyl-3,4-dihydro-2H-quinoxalin-1-yl)-[2-(2,5-dichloro-phenoxy)-5-fluoro-pyridin-3-yl]-methanone] | 689 |
| O=C(c1cc(F)cnc1Oc1cc(Cl)ccc1Cl)N1CCN(CCC(F)(F)F)c2ccccc21 [Example 153, [2-(2,5-Dichloro-phenoxy)-5-fluoro-pyridin-3-yl]-[4-(3,3,3-trifluoro-propyl)-3,4-dihydro-2H-quinoxalin-1-yl]-methanone] | 565 |
| O=C(O)CN1CCN(C(=O)c2cc(F)cnc2Oc2cc(Cl)ccc2Cl)c2ccccc21 [Example 155, {4-[2-(2,5-Dichloro-phenoxy)-5-fluoro-pyridine-3-carbonyl]-3,4-dihydro-2H-quinoxalin-1-yl}-acetic acid] | 788 |
| CCOC(=O)CCN1CCN(C(=O)c2cc(F)cnc2Oc2cc(Cl)ccc2Cl)c2ccccc21 [Example 156, 3-{4-[2-(2,5-Dichloro-phenoxy)-5-fluoro-pyridine-3-carbonyl]-3,4-dihydro-2H-quinoxalin-1-yl}-propionic acid ethyl ester] | 841 |
| CC(CN1CCN(C(=O)c2cc(F)cnc2Oc2cc(Cl)ccc2Cl)c2ccccc21)C(=O)O (stereo not drawn) [Example 157, 3-{4-[2-(2,5-Dichloro-phenoxy)-5-fluoro-pyridine-3-carbonyl]-3,4-dihydro-2H-quinoxalin-1-yl}-2-methyl-propionic acid] | 1680 |
| CCOC(=O)CCCN1CCN(C(=O)c2cc(F)cnc2Oc2cc(Cl)ccc2Cl)c2ccccc21 [Example 158, 4-{4-[2-(2,5-Dichloro-phenoxy)-5-fluoro-pyridine-3-carbonyl]-3,4-dihydro-2H-quinoxalin-1-yl}-butyric acid ethyl ester] | 384 |
| CCOC(=O)CCCCN1CCN(C(=O)c2cc(F)cnc2Oc2cc(Cl)ccc2Cl)c2ccccc21 [Example 159, 5-{4-[2-(2,5-Dichloro-phenoxy)-5-fluoro-pyridine-3-carbonyl]-3,4-dihydro-2H-quinoxalin-1-yl}-pentanoic acid ethyl ester] | 395 |
| COC(=O)CCCCCN1CCN(C(=O)c2cc(F)cnc2Oc2cc(Cl)ccc2Cl)c2ccccc21 [Example 160, 6-{4-[2-(2,5-Dichloro-phenoxy)-5-fluoro-pyridine-3-carbonyl]-3,4-dihydro-2H-quinoxalin-1-yl}-hexanoic acid methyl ester] | 724 |
| COC(=O)c1ccc(C(=O)N2CCN(C(=O)c3cc(F)cnc3Oc3cc(Cl)ccc3Cl)c3ccccc32)cc1 [Example 162, 4-{4-[2-(2,5-Dichloro-phenoxy)-5-fluoro-pyridine-3-carbonyl]-3,4-dihydro-2H-quinoxaline-1-carbonyl}-benzoic acid methyl ester] | 1160 |
| O=C(c1cccnc1Oc1cc(Cl)c(Br)cc1Cl)N1CCCc2ccccc21 [Example 165, [2-(4-Bromo-2,5-dichloro-phenoxy)-pyridin-3-yl]-(3,4-dihydro-2H-quinolin-1-yl)-methanone] | 340 |
| O=C(O)c1ccc(C#Cc2cc(Cl)c(Oc3ncccc3C(=O)N3CCN(C4CC4)c4ccccc43)cc2Cl)cc1Cl [Example 168, 2-Chloro-4-{2,5-dichloro-4-[3-(4-cyclopropyl-3,4-dihydro-2H-quinoxaline-1-carbonyl)-pyridin-2-yloxy]-phenylethynyl}-benzoic acid] | 1440 |

Now those with a lower EC50, led by results:

| EC50 [nM] | SMILES |
| --- | --- |
| 201 | CC(C)CN1CCN(C(=O)c2cccnc2Oc2cc(Cl)ccc2Cl)c2ccccc21 [Example 137, [2-(2,5-Dichloro-phenoxy)-pyridin-3-yl]-(4-isobutyl-3,4-dihydro-2H-quinoxalin-1-yl)-methanone] |
| 35 | O=C(c1cccnc1Oc1cc(Cl)ccc1Cl)N1CCN(CC2CC2)c2ccccc21 [Example 138, (4-Cyclopropylmethyl-3,4-dihydro-2H-quinoxalin-1-yl)-[2-(2,5-dichloro-phenoxy)-pyridin-3-yl]-methanone] |
| 259 | CC(=O)OCCN1CCN(C(=O)c2cccnc2Oc2cc(Cl)ccc2Cl)c2ccccc21 [Example 140, Acetic acid 2-{4-[2-(2,5-dichloro-phenoxy)-pyridine-3-carbonyl]-3,4-dihydro-2H-quinoxalin-1-yl}-ethyl ester] |
| 286 | O=C(c1cccnc1Oc1cc(C(F)(F)F)ccc1F)N1CCCc2ccccc21 [Example 144, (3,4-Dihydro-2H-quinolin-1-yl)-[2-(2-fluoro-5-trifluoromethyl-phenoxy)-pyridin-3-yl]-methanone] |
| 29 | COc1ncccc1N(C)C(=O)c1cc(F)cnc1Oc1cc(Cl)ccc1Cl [Example 145, 2-(2,5-Dichloro-phenoxy)-5-fluoro-N-(2-methoxy-pyridin-3-yl)-N-methyl-nicotinamide] |
| 15 | O=C(c1cc(F)cnc1Oc1cc(Cl)ccc1Cl)N1CCNc2ccccc21 [Example 147, [2-(2,5-Dichloro-phenoxy)-5-fluoro-pyridin-3-yl]-(3,4-dihydro-2H-quinoxalin-1-yl)-methanone] |
| 155 | O=C(c1cc(F)cnc1Oc1cc(Cl)ccc1Cl)N1Cc2cccn2-c2ccccc21 [Example 149] |
| 58 | O=C(c1cc(F)cnc1Oc1cc(Cl)ccc1Cl)N1CCN(C2CCC2)c2ccccc21 [Example 150, (4-Cyclobutyl-3,4-dihydro-2H-quinoxalin-1-yl)-[2-(2,5-dichloro-phenoxy)-5-fluoro-pyridin-3-yl]-methanone] |
| 53 | CCOC(=O)CN1CCN(C(=O)c2cc(F)cnc2Oc2cc(Cl)ccc2Cl)c2ccccc21 [Example 154, {4-[2-(2,5-Dichloro-phenoxy)-5-fluoro-pyridine-3-carbonyl]-3,4-dihydro-2H-quinoxalin-1-yl}-acetic acid ethyl ester] |
| 104 | O=C(O)CCCCCN1CCN(C(=O)c2cc(F)cnc2Oc2cc(Cl)ccc2Cl)c2ccccc21 [Example 161, 6-{4-[2-(2,5-Dichloro-phenoxy)-5-fluoro-pyridine-3-carbonyl]-3,4-dihydro-2H-quinoxalin-1-yl}-hexanoic acid] |
| 54 | O=C(c1cccnc1Oc1cc(Cl)c(Br)cc1Cl)N1CCN(C2CC2)c2ccccc21 [Example 163, [2-(4-Bromo-2,5-dichloro-phenoxy)-pyridin-3-yl]-(4-cyclopropyl-3,4-dihydro-2H-quinoxalin-1-yl)-methanone] |
| 36 | O=C(c1cccnc1Oc1cc(Cl)c(C#CCO)cc1Cl)N1CCN(C2CC2)c2ccccc21 [Example 164, (4-Cyclopropyl-3,4-dihydro-2H-quinoxalin-1-yl)-{2-[2,5-dichloro-4-(3-hydroxy-prop-1-ynyl)-phenoxy]-pyridin-3-yl}-methanone] |
| 148 | COC(=O)CCC#Cc1cc(Cl)c(Oc2ncccc2C(=O)N2CCCc3ccccc32)cc1Cl [Example 166, 5-{2,5-Dichloro-4-[3-(3,4-dihydro-2H-quinoline-1-carbonyl)-pyridin-2-yloxy]-phenyl}-pent-4-ynoic acid methyl ester] |
| 211 | COC(=O)c1ccc(C#Cc2cc(Cl)c(Oc3ncccc3C(=O)N3CCN(C4CC4)c4ccccc43)cc2Cl)cc1Cl [Example 167, 2-Chloro-4-{2,5-dichloro-4-[3-(4-cyclopropyl-3,4-dihydro-2H-quinoxaline-1-carbonyl)-pyridin-2-yloxy]-phenylethynyl}-benzoic acid methyl ester] |
| 127 | O=C(O)c1ccc(CCc2cc(Cl)c(Oc3ncccc3C(=O)N3CCN(C4CC4)c4ccccc43)cc2Cl)cc1Cl [Example 169, 2-Chloro-4-(2-{2,5-dichloro-4-[3-(4-cyclopropyl-3,4-dihydro-2H-quinoxaline-1-carbonyl)-pyridin-2-yloxy]-phenyl}-ethyl)-benzoic acid] |
